Data as given in patent US6849602B1 (The Regents of the University of California, priority 1996, dated 2005).
Non-standard residues stand in square brackets, D forms with d. No end group written: not given here.

Assays:
[1] = tested on: streptozotocin (STZ)-diabetic rats; assay: Formalin flinch test in streptozotocin-diabetic rats; format: in vivo, rat; parameters: hyperalgesia in formalin test / formalin-induced pain (allodynia): dose or concentration left out as unconfirmed
Method: Rats were made diabetic by a single intraperitoneal injection of streptozotocin (STZ) (50 mg/kg body weight, freshly dissolved in 0.9% sterile saline) to ablate pancreatic β cells and induce insulin deficiency as described in Calcutt et al., Pain 68:293-299 (1996). Two days later, diabetes was confirmed in streptozotocin-injected rats by measuring blood glucose levels. Streptozotocin-injected animals with a blood glucose concentration below 15 mmol/l were excluded from subsequent studies, according to the commonly accepted definition of non-fasting hyperglycemia in studies of diabetes in rats.
Both diabetic and control rats were studied at 8 weeks by analyzing the behavioral response to the noxious chemical formalin as an indicator of allodynia (Calcutt et al. supra (1996)). Briefly, rats received a subcutaneous injection of freshly-prepared formalin (50 μl of 0.5% solution in sterile saline) into the dorsal surface of the right hind paw. This concentration of formalin induces sub-maximal behavioral responses in control rats and allows detection of hyperalgesia in diabetic rats during phases Q and 2 (Calcutt et al., Eur. J. Pharmacol. 285:189-197 (1995). Animals were transferred to an observation chamber constructed to allow continuous visualization of the paws. The number of flinches during one minute periods were counted at 5 minute intervals for the next 60 minutes by an observer who was unaware of the treatment group of each animal. Phase 1 was defined as the initial measurement of flinching (1-2 and 5-6 minutes post injection); the Q (quiescent) phase as the measurements made at 10-11, 15-16 and 20-21 minutes; and Phase 2 as all subsequent measurements post injection, as previously defined for studies of diabetic rats (see, for example, Malmberg et al., Neurosci. […] Comparisons of activity during each phase were made by summing the flinches at measurement points within the phase. Diabetic rats gave an abnormal flinch response, as has been reported previously.
Peptide SEQ ID NO:2 was obtained in pure form by chemical synthesis, dissolved in sterile PBS and buffered to a neutral pH. Diabetic rats were divided in two groups of four animals each, which were administered saline or peptide SEQ ID NO:2, respectively.
The formalin testing was done after 4 weeks, of three time weekly injections, and testing was done after the last dose (last bar, FIG. 7).
This EXAMPLE was designed to determine whether prosaptide could also reverse conduction deficits and hyperalgesia in the formalin test pain model once these disorders are established in diabetic rats. SNCV was measured before onset of diabetes and 4-8 weeks later in groups of control, untreated diabetic and prosaptide-treated (200 μg/kg i.p. thrice weekly for the last 4 weeks) diabetic rats. Flinch responses to injection of formalin (50 μl or 0.5% or 5.0% solution) were followed for 60 min in control, 8 week untreated diabetic, […] with prosaptide (200 μg/kg i.p.) thrice weekly for the last 4 weeks (the last treatment being 48-72 hr pre-test).

[2] = tested on: control rats; assay: Formalin test in control rats; format: in vivo, rat; conditions: single bolus doses of up to 1 mg/kg i.p. 30 min pre-test
[3] = tested on: Newborn mouse cerebellar explants; assay: Ex vivo myelination assay in newborn mouse cerebellar explants; format: cell-based; conditions: 10 μg/ml
Method: Newborn mouse cerebellar explants are prepared according to Satomi, Zool. Sci. 9:127-137 (1992). Neurite outgrowth and myelination are observed over 22 days in culture, during the period when the newborn mouse cerebellum normally undergoes neuronal differentiation and myelination begins. […] Neurite outgrowth and myelination in three control and three treated explants is assessed under a bright field microscope with a video camera. On the eighth day, cultures containing the peptides are thinner and more spread out than control cultures. […] Such projections are absent or less prominent in control cultures. […] Thus, the peptide of the invention induces myelination in differentiating cerebellum ex vivo.

[4] = tested on: taxol-treated mice; assay: Loss of thermal sensation (Hargreaves) in taxol-treated mice; format: in vivo, mouse; conditions: 100 μg/kg, 200 μg/kg or 1 mg/kg
Method: Mice were administered taxol in order to induce sensory neuropathy.
The loss of thermal sensation was measured using a Hargreaves sensory testing apparatus as an indicator of sensory neuropathy.

[5] = tested on: Selzer rat model; assay: Hyperalgesia (hot plate withdrawal) in Selzer model rats; format: in vivo; conditions: intravenous at a dose of 200 mg/kg
Method: After induction of hyperalgesia by ligation of the sciatic nerve in one hind limb, the animals were injected with Prosaptide TX 14(A). Relief was measured using the hot plate withdrawal technique comparing ligated vs. unligated hind foot withdrawal. […] The relief lasted for up to 48 hours post injection.

[6] = tested on: STZ-diabetic rats; assay: Nerve function, thermal response and body weight in STZ-diabetic rats; format: in vivo, rat; conditions: for decline in SNCV between weeks 4 and 8 of diabetes: 200 μg/kg i.p. thrice weekly beginning after 4 weeks of diabetes
Method: Control and STZ-diabetic rats were treated using 1000 μg prosaptide TX 14(A) per kg body weights i.p., three times per week for 8 weeks.
In this EXAMPLE, control and STZ-diabetic rats were treated with prosaptide TX 14(A) at doses of 20 μg/kg, 200 μg/kg, and 1000 μg/kg body weight, i.p., three times per week for 8 weeks. The rats were weighed at the beginning, midpoint and the end of the experiment and motor nerve conduction (MNCV) and sensor nerve conduction velocity (SNCV) measurements were taken at the three time points.
These deficits were attenuated by thrice weekly treatment (1 mg/kg i.p. for 8 weeks) with prosaptide (58.1±1.2 and 54.9±1.3 respectively).
This EXAMPLE was designed to determine whether prosaptide could also reverse conduction deficits and hyperalgesia in the formalin test pain model once these disorders are established in diabetic rats. SNCV was measured before onset of diabetes and 4-8 weeks later in groups of control, untreated diabetic and prosaptide-treated (200 μg/kg i.p. thrice weekly for the last 4 weeks) diabetic rats. Flinch responses to injection of formalin (50 μl or 0.5% or 5.0% solution) were followed for 60 min in control, 8 week untreated diabetic, 8 week diabetic treated with prosaptide (200 μg/kg i.p.) 30 min pre-test and 8 week diabetic treated with prosaptide (200 μg/kg i.p.) thrice weekly for the last 4 weeks (the last treatment being 48-72 hr pre-test).

[7] = tested on: neuroblastoma cells; assay: Neurotrophic activity (neurite outgrowth, choline acetyltransferase, cell death); format: cell-based
[8] = 200 μg/kg intraperitoneal, two hours before 0.5% formalin
[9] = 1 mg/kg i.p. thrice weekly for 8 weeks, diabetic rats

With T[dA]LIDNNATEEILY [SEQ ID NO:2] the “hyperalgesia during the formalin test” value ([1]; 200 μg/kg i.p. thrice weekly for the last 4 weeks, last treatment 48-72 hr pre-test) was “reduction in hyperalgesia”, the “abnormal flinch response in Phase 1” value [1, 8] was “completely prevented the abnormal flinch response” and the “amelioration of the flinch response in Phase 2” value [1, 8] was 70%. For the same substance, the “hyperalgesia in formalin test” value ([1]; after 8 weeks of diabetes, i.p. 30 min before testing) was “reversed the hyperalgesia”, the “hyperalgesia in the diabetic rat” value ([1]; given parenterally, FIG. 7) was “reverses hyperalgesia” and the “hyperalgesia during the formalin test” value ([1]; single bolus 200 μg/kg i.p. 30 min pre-test, 8 week diabetic rats) was “effective in abolishing hyperalgesia”. For the same substance, the “formalin-induced pain (allodynia)” value ([1]; three time weekly injections for 4 weeks) was “prevention of formalin-induced pain (allodynia)”, the “responses to formalin in control rats” value [2] was “without effect on responses to formalin” and the “myelinated axons in the subcortical white matter” value ([3]; 22 days, compared to control explants) was “significantly more myelinated axons”. The “neurite outgrowth (long projections) in explants” value ([3]; day 15) was “contain many cells with long projections at the periphery of the explant”, the “loss of thermal sensation” value [4] was “effective in inhibiting loss of thermal sensation” and the “duration of relief post injection” value [5] was “up to 48 hours”. For the same substance, the relief of hyperalgesia [5] was “nearly complete relief of hyperalgesia”, the “time after injection to relief” value [5] was ≤ 3 h and the thermal response latency ([6]; 20 μg treatment group) was “intermediate response”. For the same substance, the “decline in SNCV between weeks 4 and 8 of diabetes” value ([6]; listed as prosaptide) was “prevents any further decline in SNCV”, the “decline in SNCV between weeks 4 and 8 of diabetes” value ([6]; listed as prosaptide TX 14(A)) was “halts progressive slowing of sensory conduction” and the thermal hypoalgesia ([6]; 1000 μg per kg i.p., three times per week for 8 weeks) was “prevented hypoalgesia”. For the same substance, the “hyperglycemia and loss of body weight” value ([6]; 1000 μg per kg i.p., three times per week for 8 weeks (EXAMPLE XIV)) was “did not prevent hyperglycemia or loss of body weight”, the MNCV [6, 9] was 58.1±1.2 m/s and the SNCV [6, 9] was 54.9±1.3 m/s. The “thermal response latency (thermal hypoalgesia)” value [6, 9] was 8.8 ± 0.6 s, the “weight loss compared to diabetic animals” value ([6]; 20, 200 and 1000 μg/kg i.p., three times per week for 8 weeks) was “significant decreases in weight loss in a dose dependent manner” and the thermal response latency ([6]; 200 and 1000 μg) was “restored to control non-diabetic levels”. For the same substance, the “motor nerve conduction velocities” value ([6]; 200 and 1000 μg/kg, compared to untreated diabetic group and 20 μg/kg) was “enhanced motor nerve conduction velocities”, the “loss of sensory nerve conduction velocity” value ([6]; all treated groups (20, 200, 1000 μg/kg)) was “slower loss of sensory nerve conduction velocity” and the “thermal hypoalgesia and decline in nerve conduction velocities during 8 weeks of diabetes” value ([6]; time course study, thrice weekly 20, 200 or 1000 μg i.p.) was “attenuated by prosaptide in a dose-dependent manner”. For the same substance, the neurotrophic activity [7] was “have neurotrophic activity”.
